This assay concerns the target ^MtbLcp1 (Mycobacterium tuberculosis, UniProt P96872). The assay can be described thus: Intrinsic tryptophan fluorescence (ITF) ligand binding of linker unit analogues to recombinant ^MtbLcp1. Particulars: for Bmax: ITF saturation binding, change in fluorescence emission at λ = 341 nm; for Kd: ITF, single-site saturation model, 25°C, 0.026 µM ^MtbLcp1, λ = 341 nm, read-out: equilibrium dissociation constant, KD. The method, then:
Intrinsic tryptophan fluorescence (ITF) ligand binding experiments of ^MtbLcp1 with saccharide ligands were conducted on a Hitachi F7000 fluorescence spectrophotometer with the temperature thermostatically regulated to 25°C. ^MtbLcp1 was diluted to 0.026 µM with dialysis buffer, and fluorescence spectra were measured at an excitation wavelength of 280 nm and emission wavelength of 300 to 400 nm with an excitation and emission slit width of 5 nm using a 500-µl crystal cuvette. ITF maximum (Femission^max) was recorded at λ = 341 nm, providing a basal Femission coordinate for the collection of subsequent ITF data. Increasing concentrations of ligands representing the linker unit (compounds 1 to 4) were added to the cuvette. The change in fluorescence emission (ΔFemission) was calculated by subtracting Femission (recorded 2 min after each ligand addition) from Femission^max. Changes of background fluorescence observed upon addition of equivalent volumes of dialysis buffer (the solvent in which compounds 1 to 4 were dissolved) were subtracted from the overall change in fluorescence, and the data were then plotted against ligand concentration, [L] (3 independent biological experiments). A plot of ΔFemission at λ = 341 nm versus [L] was fitted to a one-site specific binding equation using GraphPad Prism 5 software: ΔFemission = Fmax × [L]/(KD + [L]).

Experimental findings from paper PMC4981717, “Lcp1 Is a Phosphotransferase Responsible for Ligating Arabinogalactan to Peptidoglycan in Mycobacterium tuberculosis” (mBio, 2016) are described below.

“And” between values parts separate entries of the source, which are not always exact repeats. Equal values may be shown once. “Also recorded” adds a separate entry of the source.

^MtbLcp1, sequence (P96872 entry or part of it): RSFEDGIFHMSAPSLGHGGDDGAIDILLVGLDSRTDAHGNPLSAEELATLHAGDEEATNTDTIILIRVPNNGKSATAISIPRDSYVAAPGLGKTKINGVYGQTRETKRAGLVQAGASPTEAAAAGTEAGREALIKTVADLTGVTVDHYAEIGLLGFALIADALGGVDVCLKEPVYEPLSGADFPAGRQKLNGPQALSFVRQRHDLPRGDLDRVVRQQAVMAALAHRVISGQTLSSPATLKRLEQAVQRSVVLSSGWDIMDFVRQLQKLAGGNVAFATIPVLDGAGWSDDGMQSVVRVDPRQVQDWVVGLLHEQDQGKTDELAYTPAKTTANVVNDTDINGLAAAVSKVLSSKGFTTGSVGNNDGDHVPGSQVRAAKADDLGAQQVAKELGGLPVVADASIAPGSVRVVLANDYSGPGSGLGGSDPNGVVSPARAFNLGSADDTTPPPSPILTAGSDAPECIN

As usually defined, the Kd is the equilibrium constant for the complex coming apart. On to `CCCCCCCCOC1OC(C)C(OC2OC(C(O)CO)C(O)C2O)C(O)C1O` [compound 4, D-Galf-β(1→4)-L-Rhap], for which the Bmax is 177 and ~ 177.6; the Kd is 97.6 µM and ~97.6 µM. Also, the “binding affinity toward ^MtbLcp1 in words” value (ITF assays, above background fluorescence) was “no significant binding affinity (above background); also recorded: no recordable affinity”.

As for `CCCCCCCCOC1OC(CO)C(O)C(OC2OC(C)C(OC3OC(C(CO)OC4OC(C(O)COC5OC(C(O)CO)C(O)C5O)C(O)C4O)C(O)C3O)C(O)C2O)C1NC(C)=O` [compound 3, octyl-β-D-galactofuranosyl-(1→6)-β-D-galactofuranosyl-(1→5)-β-D-galactofuranosyl-(1→4)-α-L-rhamnopyranosyl-(1→3)-2-acetamido-2-deoxy-α-D-glucopyranoside], the Bmax is 1498 and the Kd was determined as 20.4 µM. Moreover, the “fold decrease in binding affinity” value (additional Galf residue, versus compound 2) was determined as 4 fold.

For the compound `CCCCCCCCO[C@H]1O[C@H](CO)[C@@H](O)[C@H](O[C@@H]2O[C@@H](C)[C@H](O)[C@@H](O)[C@H]2O)[C@H]1NC(C)=O` [compound 1, octyl α-L-rhamnopyranosyl-(1→3)-2-acetamido-2-deoxy-α-D-glucopyranoside], the Bmax was 1448 and the Kd came to 57.7 µM.

Consider `CCCCCCCCOC1OC(CO)C(O)C(OC2OC(C)C(OC3OC(C(CO)OC4OC(C(O)CO)C(O)C4O)C(O)C3O)C(O)C2O)C1NC(C)=O` [compound 2, octyl-β-D-galactofuranosyl-(1→5)-β-D-galactofuranosyl-(1→4)-α-L-rhamnopyranosyl-(1→3)-2-acetamido-2-deoxy-α-D-glucopyranoside], for which the Bmax stood at 1585 and the equilibrium dissociation constant (Kd) was found to be 5.13 µM. The “fold increase in affinity” value (tetrasaccharide ligand versus linker unit disaccharide (compound 1)) was ~ 10 fold.
